How the values were obtained:
[1] = test system: HUVEC; assay: MTT cytotoxicity assay, normal HUVEC cells; settings: Homo sapiens, 48 h, read-out: IC50 HUVEC
Method: (§1) MTT assay was used to determine the cytotoxic activity of target compounds against different cell lines. […] Then, the cells were treated with five doses of test compounds (pre-dissolved in DMSO), and 0.1% DMSO was used as a negative control. […] The results expressed as IC50 were the average of three determinations calculated by using the Bacus Laboratories Incorporated Slide Scanner (Bliss) software.

[2] = test system: HT-29; assay: MTT antiproliferative assay, HT-29; settings: Homo sapiens, HT-29, 48 h, read-out: IC50 HT-29
Method: as §1

[3] = test system: FHC; assay: MTT cytotoxicity assay, normal FHC cells; settings: Homo sapiens, 48 h, read-out: IC50 FHC
Method: as §1

[4] = test system: A549; assay: MTT antiproliferative assay, A549; settings: Homo sapiens, A549, 48 h, read-out: IC50 A549
Method: as §1

[5] = target: T1, c-Met (Homo sapiens, UniProt P08581); assay: In vitro c-Met enzymatic assay (HTRF); format: biochemical; settings: for IC50: HTRF assay, mean ± SD, triplicate, read-out: IC50 against c-Met; for fold loss of c-Met inhibitory activity compared to 51w: ratio of c-Met IC50 to that of 51w
T1 construct: purchased Invitrogen (Waltham, MA)
T1 sequence (P08581 25-1390): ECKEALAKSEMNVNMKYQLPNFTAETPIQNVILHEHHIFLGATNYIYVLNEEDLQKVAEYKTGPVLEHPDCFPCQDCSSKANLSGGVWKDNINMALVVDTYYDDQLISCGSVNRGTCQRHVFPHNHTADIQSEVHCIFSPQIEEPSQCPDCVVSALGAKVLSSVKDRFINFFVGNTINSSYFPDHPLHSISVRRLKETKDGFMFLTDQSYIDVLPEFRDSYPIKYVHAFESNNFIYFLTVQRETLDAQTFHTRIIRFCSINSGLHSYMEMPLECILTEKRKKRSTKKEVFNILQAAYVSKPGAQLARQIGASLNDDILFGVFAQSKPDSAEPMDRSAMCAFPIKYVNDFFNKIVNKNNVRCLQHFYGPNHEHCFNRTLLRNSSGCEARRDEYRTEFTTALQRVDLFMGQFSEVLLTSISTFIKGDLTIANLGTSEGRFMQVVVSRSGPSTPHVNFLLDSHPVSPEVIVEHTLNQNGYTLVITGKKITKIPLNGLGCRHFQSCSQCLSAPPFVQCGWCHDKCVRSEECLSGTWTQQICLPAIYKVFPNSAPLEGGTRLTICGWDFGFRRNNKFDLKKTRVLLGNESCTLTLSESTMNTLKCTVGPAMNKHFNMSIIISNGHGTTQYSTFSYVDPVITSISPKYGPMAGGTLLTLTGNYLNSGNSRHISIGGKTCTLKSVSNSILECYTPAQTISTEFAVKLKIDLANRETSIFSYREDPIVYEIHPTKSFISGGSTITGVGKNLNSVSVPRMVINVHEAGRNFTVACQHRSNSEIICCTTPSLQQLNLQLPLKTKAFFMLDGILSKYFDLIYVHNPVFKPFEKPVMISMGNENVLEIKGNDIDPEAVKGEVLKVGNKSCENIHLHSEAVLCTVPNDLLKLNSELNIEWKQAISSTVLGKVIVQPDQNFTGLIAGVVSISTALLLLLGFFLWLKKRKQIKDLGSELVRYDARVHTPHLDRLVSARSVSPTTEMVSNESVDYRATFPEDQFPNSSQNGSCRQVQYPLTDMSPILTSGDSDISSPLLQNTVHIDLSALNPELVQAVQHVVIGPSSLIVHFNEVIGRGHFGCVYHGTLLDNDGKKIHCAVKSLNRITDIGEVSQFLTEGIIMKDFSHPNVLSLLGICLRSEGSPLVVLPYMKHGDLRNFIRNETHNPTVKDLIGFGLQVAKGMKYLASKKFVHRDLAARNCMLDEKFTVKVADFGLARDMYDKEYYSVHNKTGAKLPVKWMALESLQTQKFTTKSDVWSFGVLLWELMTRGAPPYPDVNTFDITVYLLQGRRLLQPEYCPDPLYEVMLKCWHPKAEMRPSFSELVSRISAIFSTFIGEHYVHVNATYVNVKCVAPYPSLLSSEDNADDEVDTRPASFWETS
Method: Inhibition of target compounds on c-Met kinase activity was measured by using the homogeneous time-resolved fluorescence (HTRF) assay.
The tyrosine kinases inhibitory activities of target compounds were evaluated in 384-well microtiter plates using purified kinases purchased from Invitrogen (Waltham, MA) by homogeneous time-resolved fluorescence (HTRF) assay. The HTRF KinEASE TK kit was performed according to the instructions. After the kinases and test compounds were incubated at 25–30 °C for 5 min, the kinase reactions were initiated by addition of 39 μL of kinase reaction buffer solution and incubated at 25–30 °C for 30 min. The reactions were quenched by addition 10 µL mixed detection solution. […] The inhibition rate (%) was calculated using the following equation: inhibition rate = [(activity of enzyme with tested compound – min)/(max – min)] × 100 (max: the enzyme activity in the presence of enzyme, substrates and cofactors; min: the enzyme activity in the presence of substrates, cofactors and in the absence of enzyme). IC50 value was calculated from the inhibition curve using GraphPad Prism 5.0 software (La Jolla, CA).

[6] = test system: MKN-45; assay: MTT antiproliferative assay, MKN-45; settings: Homo sapiens, MKN-45, 48 h, read-out: IC50 MKN-45
Method: as §1

[7] = test system: MDA-MB-231; assay: MTT antiproliferative assay, MDA-MB-231; settings: Homo sapiens, MDA-MB-231, 48 h, read-out: IC50 MDA-MB-231
Method: as §1

SMILES	IC50 [2] [µM]	IC50 [4] [µM]	melting point [°C]	IC50 [5] [µM]	IC50 [6] [µM]	IC50 [7] [µM]	fold loss of c-Met inhibitory activity compared to 51w [5] [fold]	IC50 [1] [µM]	IC50 [3] [µM]
COc1cc2nccc(Oc3ccc(NC(=O)c4ncc(-c5ccccc5)s4)cc3)c2cc1OC [Compound 51g, N-(4-((6,7-Dimethoxyquinolin-4-yl)oxy)phenyl)-5-phenylthiazole-2-carboxamide]	23.4 ± 1.58	17.4 ± 2.23	260 to 262	0.0394 ± 0.00325	6.21 ± 0.85	32.8 ± 2.23	–	48.4 ± 2.54	54.5 ± 3.25
COc1cc2nccc(Oc3ccc(NC(=O)c4nc(-c5ccccc5)cs4)cc3Cl)c2cc1OC [Compound 51l, N-(3-Chloro-4-((6,7-dimethoxyquinolin-4-yl)oxy)phenyl)-4-phenylthiazole-2-carboxamide]	20.9 ± 3.56	13.2 ± 2.41	146 to 148	0.0319 ± 0.00451	6.23 ± 0.72	32.1 ± 2.54	–	40.9 ± 2.32	51.6 ± 3.96
COc1cc2nccc(Oc3ccc(NC(=O)c4nc(-c5ccccc5)cs4)cc3)c2cc1OC [Compound 51e, N-(4-((6,7-Dimethoxyquinolin-4-yl)oxy)phenyl)-4-phenylthiazole-2-carboxamide]	21.8 ± 1.66	16.6 ± 2.16	63 to 65	0.0345 ± 0.00465	5.86 ± 0.93	> 50	–	56.5 ± 4.81	64.5 ± 6.12
O=C(Nc1ccc(Oc2ccnc(Cl)c2)c(F)c1)c1nc(-c2ccc3ccccc3c2)cs1 [Compound 51ai, N-(4-((2-Chloropyridin-4-yl)oxy)-3-fluorophenyl)-4-(naphthalen-2-yl)thiazole-2-carboxamide]	21.5 ± 1.58	15.3 ± 2.81	182 to 184	0.0614 ± 0.00458	6.12 ± 1.38	30.3 ± 2.16	2.6	> 100	> 100
O=C(Nc1ccc(Oc2ncnc3ccsc23)c(F)c1)c1nc(-c2ccccc2)cs1 [Compound 51s, N-(3-Fluoro-4-(thieno[3,2-d]pyrimidin-4-yloxy)phenyl)-4-phenylthiazole-2-carboxamide]	25.6 ± 1.76	18.4 ± 2.33	95 to 97	0.0433 ± 0.00625	6.05 ± 0.94	32.8 ± 2.7	–	43.4 ± 3.65	65.5 ± 5.56
COc1cc2nccc(Oc3ccc(NC(=O)c4ncc(-c5ccc(F)cc5)s4)cc3)c2cc1OC [Compound 51h, N-(4-((6,7-Dimethoxyquinolin-4-yl)oxy)phenyl)-5-(4-fluorophenyl)thiazole-2-carboxamide]	22.7 ± 3.32	16.8 ± 1.58	252 to 254	0.0354 ± 0.00503	5.97 ± 0.98	34.2 ± 2.82	–	42.1 ± 4.35	50.2 ± 2.89
COc1cc2nccc(Oc3ccc(NC(=O)c4nc(-c5ccc(F)cc5)ns4)cc3)c2cc1OC [Compound 51b, N-(4-((6,7-Dimethoxyquinolin-4-yl)oxy)phenyl)-3-(4-fluorophenyl)-1,2,4-thiadiazole-5-carboxamide]	26.5 ± 1.42	22.5 ± 3.15	113 to 115	0.0501 ± 0.00514	7.89 ± 1.35	38.6 ± 4.07	–	> 100	> 100
COc1cc2nccc(Oc3ccc(NC(=O)c4nc(-c5ccccc5)cs4)cc3F)c2cc1OC [Compound 51j, N-(4-((6,7-Dimethoxyquinolin-4-yl)oxy)-3-fluorophenyl)-4-phenylthiazole-2-carboxamide]	19.6 ± 2.89	13.8 ± 1.76	90 to 92	0.0295 ± 0.00342	4.58 ± 0.75	32.3 ± 2.78	–	45.6 ± 5.12	> 100
COc1cc2nccc(Oc3ccc(NC(=O)c4nnc(-c5ccccc5)s4)cc3)c2cc1OC [Compound 51c, N-(4-((6,7-Dimethoxyquinolin-4-yl)oxy)phenyl)-5-phenyl-1,3,4-thiadiazole-2-carboxamide]	29.3 ± 3.85	20.6 ± 1.96	141 to 143	0.0457 ± 0.00388	6.94 ± 1.06	34.7 ± 2.58	–	53.5 ± 4.62	71.3 ± 5.25

Continued, in another order:

IC50 [2] [µM]	IC50 [4] [µM]	melting point [°C]	IC50 [5] [µM]	IC50 [6] [µM]	IC50 [7] [µM]	fold loss of c-Met inhibitory activity compared to 51w [5] [fold]	SMILES	IC50 [1] [µM]	IC50 [3] [µM]
0.94 ± 0.27	1.32 ± 0.35	156 to 158	0.00373 ± 0.00062	0.15 ± 0.07	4.65 ± 0.93	–	O=C(Nc1ccc(Oc2ccnc(Cl)c2Cl)c(F)c1)c1nc(-c2ccc(F)c(F)c2)cs1 [Compound 51an, N-(4-((2,3-Dichloropyridin-4-yl)oxy)-3-fluorophenyl)-4-(3,4-difluorophenyl)thiazole-2-carboxamide]	4.83 ± 0.69	9.54 ± 1.26
11.7 ± 1.63	8.23 ± 1.42	192 to 194	0.0192 ± 0.00144	2.06 ± 0.45	20.5 ± 3.65	–	O=C(Nc1ccc(Oc2ccnc(Cl)c2)c(F)c1)c1nc(-c2ccc(Br)cc2)cs1 [Compound 51af, 4-(4-Bromophenyl)-N-(4-((2-chloropyridin-4-yl)oxy)-3-fluorophenyl)thiazole-2-carboxamide]	11.5 ± 0.83	21.6 ± 2.82
18.7 ± 3.13	12.2 ± 1.63	115 to 117	0.0296 ± 0.00384	4.23 ± 0.96	29.6 ± 3.54	–	COc1cc2ncnc(Oc3ccc(NC(=O)c4nc(-c5ccccc5)cs4)cc3F)c2cc1OC [Compound 51o, N-(4-((6,7-Dimethoxyquinazolin-4-yl)oxy)-3-fluorophenyl)-4-phenylthiazole-2-carboxamide]	36.6 ± 4.23	50.3 ± 3.58
8.04 ± 0.93	6.75 ± 0.55	167 to 169	0.0178 ± 0.00182	1.74 ± 0.23	15.2 ± 1.46	–	O=C(Nc1ccc(Oc2ccnc(Cl)c2)c(F)c1)c1nc(-c2ccc(Cl)cc2)cs1 [Compound 51ad, 4-(4-Chlorophenyl)-N-(4-((2-chloropyridin-4-yl)oxy)-3-fluorophenyl)thiazole-2-carboxamide]	18.5 ± 2.04	26.5 ± 1.28
17.5 ± 2.44	11.5 ± 2.17	184 to 186	0.0495 ± 0.00536	4.55 ± 0.91	25.9 ± 3.41	2.1	O=C(Nc1ccc(Oc2ccnc(Cl)c2)c(F)c1)c1nc(-c2cccs2)cs1 [Compound 51aj, N-(4-((2-chloropyridin-4-yl)oxy)-3-fluorophenyl)-4-(thiophen-2-yl)thiazole-2-carboxamide]	52.3 ± 3.74	> 100
19.4 ± 2.48	12.9 ± 1.82	251 to 253	0.0385 ± 0.00423	5.95 ± 0.63	32.5 ± 2.68	–	O=C(Nc1ccc(Oc2ccnc3ccsc23)c(F)c1)c1nc(-c2ccccc2)cs1 [Compound 51q, N-(3-Fluoro-4-(thieno[3,2-b]pyridin-7-yloxy)phenyl)-4-phenylthiazole-2-carboxamide]	69.5 ± 2.68	80.6 ± 4.52
1.56 ± 0.32	1.81 ± 0.34	168 to 170	0.00389 ± 0.00052	0.22 ± 0.04	4.24 ± 0.68	–	O=C(Nc1ccc(Oc2ccnc(Cl)c2)c(F)c1)c1nc(-c2ccc(F)c(Cl)c2)cs1 [Compound 51ak, 4-(3-Chloro-4-fluorophenyl)-N-(4-((2-chloropyridin-4-yl)oxy)-3-fluorophenyl)thiazole-2-carboxamide]	8.52 ± 1.35	13.2 ± 0.84
1.94 ± 0.65	2.26 ± 0.68	170 to 172	0.00523 ± 0.00074	0.35 ± 0.07	5.82 ± 0.73	–	O=C(Nc1ccc(Oc2ccnc(Cl)c2)c(F)c1)c1nc(-c2ccc(F)c(F)c2)cs1 [Compound 51al, N-(4-((2-Chloropyridin-4-yl)oxy)-3-fluorophenyl)-4-(3,4-difluorophenyl)thiazole-2-carboxamide]	6.14 ± 0.75	10.2 ± 1.65
15.6 ± 2.51	11.3 ± 1.96	120 to 122	0.0455 ± 0.00628	4.05 ± 1.12	20.5 ± 3.14	–	COc1ccc(-c2csc(C(=O)Nc3ccc(Oc4ccnc(Cl)c4)c(F)c3)n2)cc1OC [Compound 51z, N-(4-((2-Chloropyridin-4-yl)oxy)-3-fluorophenyl)-4-(3,4-dimethoxyphenyl)thiazole-2-carboxamide]	26.5 ± 3.84	> 100

From paper PMC10467532, “Design, synthesis, and biological evaluation of thiazole/thiadiazole carboxamide scaffold-based derivatives as potential c-Met kinase inhibitors for cancer treatment” (Journal of Enzyme Inhibition and Medicinal Chemistry, 2023)
